Test results: article PMC10518255, “A first-in-class pan-lysyl oxidase inhibitor impairs stromal remodeling and enhances gemcitabine response and survival in pancreatic cancer” (Nature Cancer, 2023)
“And” between values parts separate entries of the source, which are not always exact repeats. Equal values may be shown once.

Experiments:
[1] = Plasma stability; assay type: in vitro ADME; conditions: In vitro (human)
[2] = system: collagen crosslinks (DHLNL, Pyr) in KPC CAF organotypic matrices; experiment: Collagen crosslink quantification by LC-MS in organotypic matrices; assay type: cell-based, mouse
Experimental: Fig. 3 PXS-5505 inhibition of CAF remodeling in vitro. a, Quantitative PCR with reverse transcription (qRT–PCR) showing in vitro comparison of KPC CAF relative expression of lysyl oxidase family members compared to KPC CCs from the same model (n = 3 biologically independent samples). Comparisons were determined by 2^–∆∆Ct approach. b, Representative images of 3D organotypic matrix contraction assay at days 2, 6 and 12 in the absence (gray) or presence (pink) of PXS-5505 (30 µM). Scale bars, 5 mm. Comparison of measured area of matrices between control and PXS-5505 treatment groups over time (n = 3 technical samples examined over three biologically independent samples). Data are mean ± s.d. c, Concentration of immature divalent DHLNL and mature trivalent Pyr collagen crosslinks determined by LC–MS from control and PXS-5505-treated organotypic matrices at day 12 ([…]). Data are mean ± s.d. […] Data are presented as mean ± s.d. […] Comparison of number of CCs invaded per field of view (FOV) as determined by H&E and PanCK staining (nine images taken from three technical samples from each of three biologically independent contracted matrices), normalized to control. Data are mean ± s.d. Scale bars, 100 μm. […] Source data
KPC CAFs embedded in 3D organotypic matrices remodel and crosslink them.
Collagen matrices were freeze dried and reduced with NaBH4. The resulting pellet was hydrolyzed with 6 mol l^−1 HCl at 100 °C for 24 h. An automated solid phase extraction system (Gilson GX-271 ASPECA system) was used to extract hydroxyproline and crosslinks from the hydrolysate. The samples were analyzed for hydroxyproline crosslinks by a UHPLC–ESI–MS/MS on a Thermo Dionex UPHPLC and TSQ Endura triple quadmass spectrometer as previously published. The lower limit of detection was 0.013 pmol 10 µl^−1.

[3] = LC/MS, organotypic matrices at day 12, single replicates (3 biological x 2 technical)
[4] = day 12, normalized to total collagen content

For `Cl.Cl.NC/C=C(\F)CS(=O)(=O)c1cccc2cccnc12.O` [PXS-5505, (Z)-3-fluoro-4-(quinolin-8-ylsulfonyl)but-2-en-1-amine dihydrochloride monohydrate], the remaining at 1 h [1] was 97%, the “Concentration of immature divalent dihyroxylysinonorleucine (DHLNL) collagen cross-links” value [2, 3] was 2.81 pmol/mL and 3.555 pmol/mL and 2.615 pmol/mL and 4.105 pmol/mL and 3.075 pmol/mL and 4.4 pmol/mL and the “Concentration of mature trivalent hydroxylysylpyridinoline (Pyr, PYD) collagen cross-links” value [2, 3] was 4.5 pmol/mL and 5.52 pmol/mL and 3.85 pmol/mL and 8.4 pmol/mL and 6.325 pmol/mL and 6.2 pmol/mL. For the same compound, the “immature divalent DHLNL collagen crosslinks” value [2, 4] was “decreases” and the “mature trivalent Pyr collagen crosslinks” value [2, 4] was “decreases”.
